Data on 25 molecules can be found in patent US12577247B2 (BUGWORKS RESEARCH, INC., priority 2021, dated 2026).

Assay [1] has as its target T1, A2A receptor (Homo sapiens, UniProt P29274).
T1 construct: host or cells: HEK-293
Nature of the assay: A2aR antagonism IC50, cAMP TR-FRET (Lance Ultra) in HEK-293 cells, NECA as agonist.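 Further: compounds tested from 10 µM down to 0.08 nM in buffer with Rolipram at room temperature, TR-FRET cAMP signal read 1 h after adding Eu-cAMP tracer and ULight anti-cAMP.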 The assay is classed as cell-based. The following applies: A2AR IC50 (nM) (@5 nM NECA), HEK-293 cells expressing A2A receptor; agonist NECA 5 nM (EC90); inhibition of cAMP.

Assay [2] has as its target T2, A2B receptor (Homo sapiens, UniProt P29275).
T2 sequence (P29275 1-332): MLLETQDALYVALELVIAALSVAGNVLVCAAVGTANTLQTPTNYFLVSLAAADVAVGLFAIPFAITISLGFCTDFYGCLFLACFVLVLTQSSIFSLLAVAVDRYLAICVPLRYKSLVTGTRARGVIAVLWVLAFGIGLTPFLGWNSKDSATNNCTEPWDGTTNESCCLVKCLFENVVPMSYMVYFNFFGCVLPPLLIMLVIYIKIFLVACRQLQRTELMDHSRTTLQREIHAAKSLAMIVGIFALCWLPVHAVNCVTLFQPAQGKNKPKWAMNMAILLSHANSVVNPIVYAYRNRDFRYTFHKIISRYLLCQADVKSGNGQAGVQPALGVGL
In words: A2bR antagonism IC50, cAMP TR-FRET (Lance Ultra) in HEK-293 cells, NECA as agonist. It counts as cell-based. Also on record: host or cells: HEK-293. The following applies: HEK-293 cells expressing A2B receptor; agonist NECA 30 nM (EC90); inhibition of cAMP. For orientation: TR-FRET usually uses a lanthanide donor and a delayed reading to cut background.
Source text: Adenosine A2A receptors and Adenosine A2B receptors induce the production of cAMP when activated/stimulated by an agonist like adenosine or 5′-(N-Ethylcarboxamido) adenosine (NECA). A Time-Resolved Fluorescence Energy Transfer (TR-FRET) assay was used to show the inhibition of this cAMP production in HEK cells upon treatment with compounds of the Formula I of the present disclosure.
HEK-293 cells expressing A2A receptor (#ES-011-C) or A2B receptor (#ES 013-C) were obtained from PerkinElmer. Cells were maintained in DMEM medium supplemented with 10% FBS and 200 μg/mL of G418 at 37° C. and 5% CO2. The cells were cultured in antibiotic free medium for a period of 16-20 hours prior to the assay. All subsequent steps of the assay are performed at room temperature (22-24° C.). The cells were harvested at about 80% confluency by gentle flushing with PBS, recovered by centrifugation and resuspended in stimulation buffer at the concentration of 5.0×10^6 cells/mL.
The assays were conducted in a stimulation buffer containing 1×DMEM, 5 mM HEPES, 0.1% BSA stabilizer and 20-30 μM Rolipram. Serial dilutions of compounds were made in stimulation buffer to achieve a final concentration of high micromolar (10 μM to 0.08 nM) in the reaction volume of 10 μL. The total reaction volume was 10 μL (5 μL of cells, 2.5 μL of antagonist and 2.5 μL of agonist). The stimulation was ended, and the reaction completed by adding 5 μL of 4× Eu-cAMP tracer working solution and 5 μL of 4× ULight-anti-cAMP working solution. The TR-FRET signal was measured after 1-hour incubation using a Tecan M1000 reader.

For assay [3], the target named is T1, A2A receptor. In words: A2aR antagonism IC50, cAMP TR-FRET in HEK-293 cells, high concentration of adenosine (30 μM).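 Further: compounds added 10 min before adenosine, then 30 min stimulation at room temperature in buffer with 100 µM rolipram and 30 µM EHNA, signal read 1 h after detection reagents.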 The assay is classed as cell-based. The following applies: HEK-293 cells expressing A2A receptor; agonist adenosine 30 μM; 2% HSA; inhibition of cAMP; read-out: A2AR IC50 (nM) (@30 μM Adenosine).
Procedure: A Time-Resolved Fluorescence Energy Transfer (TR-FRET) assay was used to show the inhibition of this cAMP production in HEK cells upon treatment with compounds of the Formula I of the present disclosure.
HEK-293 cells expressing A2A receptor (#ES-011-C) or A2B receptor (#ES 013-C) were obtained from PerkinElmer. Cells were maintained in DMEM medium supplemented with 10% FBS and 200 μg/mL of G418 at 37° C. and 5% CO2. The cells were cultured in antibiotic free medium for a period of 16-20 hours prior to the assay. All subsequent steps of the assay are performed at room temperature (22-24° C.). […] About 1500 cells per well were pre-incubated for 10 minutes with the compounds of the present invention before adding the agonist Adenosine at a high concentration (30 μM) for a total stimulation time of 30 minutes. […] The assays were conducted in a stimulation buffer containing 1×DMEM, 5 mM HEPES, 2% Human serum albumin (HSA), 100 μM Rolipram and 30 μM erythro-9-(2-hydroxy-3-nonyl) adenine (EHNA). Serial dilutions of compounds were made in stimulation buffer to achieve a final concentration of high micromolar in a reaction volume of 10 μL. The total reaction volume was 10 μL (5 μL of cells, 2.5 μL of antagonist and 2.5 μL of agonist). […] The stimulation was ended, and the reaction completed by adding 5 μL of 4× Eu-cAMP tracer working solution and 5 μL of 4× ULight-anti-cAMP working solution. The TR FRET signal was measured after 1-hour incubation using a Tecan M1000 or a PerkinElmer Victor Nivo plate reader.
The target in assay [4] is T2, A2B receptor. In words: A2bR antagonism IC50, cAMP TR-FRET in HEK-293 cells, high concentration of adenosine (30 μM).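 Further: compounds preincubated 10 min with cells, then adenosine stimulation 30 min at room temperature in buffer with Rolipram 100 µM and EHNA 30 µM, TR-FRET read after 1 h.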 The following applies: A2BR IC50 (nM) (@30 μM Adenosine), HEK-293 cells expressing A2B receptor; agonist adenosine 30 μM; 2% HSA; inhibition of cAMP.

T1 sequence (P29274 whole entry): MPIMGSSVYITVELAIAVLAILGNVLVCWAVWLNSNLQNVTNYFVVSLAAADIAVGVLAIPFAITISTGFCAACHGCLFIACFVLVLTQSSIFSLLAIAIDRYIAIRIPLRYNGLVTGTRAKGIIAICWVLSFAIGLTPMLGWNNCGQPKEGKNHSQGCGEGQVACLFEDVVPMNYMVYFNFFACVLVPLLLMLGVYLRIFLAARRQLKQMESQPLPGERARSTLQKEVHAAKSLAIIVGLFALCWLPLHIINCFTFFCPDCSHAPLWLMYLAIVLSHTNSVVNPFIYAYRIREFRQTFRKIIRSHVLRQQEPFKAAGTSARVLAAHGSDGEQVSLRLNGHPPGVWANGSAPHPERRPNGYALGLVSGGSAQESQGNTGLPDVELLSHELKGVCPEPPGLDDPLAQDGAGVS

A word on the IC50: it is the concentration that gives 50% inhibition. For the molecule `Cc1nn2c(N)c(C#N)c(NCCc3cccc(CO)n3)nc2c1C` [Example 44, 7-amino-5-((2-(6-(hydroxymethyl)pyridin-2-yl)ethyl)amino)-2,3-dimethylpyrazolo[1,5-a]pyrimidine-6-carbonitrile], the IC50 at A2A receptor [1] worked out at 1.3 nM; on A2B receptor [2], 2.3 nM.

For `CCc1c(C)nn2c(N)c(C#N)c(NC(C)Cc3cccc(C)n3)nc12` (racemic) [Example 24, 7-Amino-3-ethyl-2-methyl-5-((1-(6-methylpyridin-2-yl)propan-2-yl)amino) pyrazolo[1,5-a]pyrimidine-6-carbonitrile], the IC50 on A2B receptor [2] was 2.5 nM.

As to `CCc1c(C)nn2c(N)c(C#N)c(NCCc3nn(C(C)(C)CO)cc3F)nc12` [Example 62], the IC50 at A2A receptor [1] is 5 nM; on A2B receptor [2] it was 42 nM. Regarding `Cc1cccc(CCNc2nc3c(CC(C)C)c(C)nn3c(N)c2C#N)n1` [Example 27, 7-amino-3-(isopropylmethyl)-2-methyl-5-((2-(6-methylpyridin-2-yl)ethyl)amino) pyrazolo[1,5-a]pyrimidine-6-carbonitrile], on A2B receptor [2], the IC50 came to 654 nM. As for `CCc1c(C)nn2c(N)c(C#N)c(NCCc3ccc(OC)cn3)nc12` [Example 19, 7-Amino-3-ethyl-5-((2-(5-methoxypyridin-2-yl)ethyl)amino)-2-methylpyrazolo [1,5-a]pyrimidine-6-carbonitrile], the IC50 on A2A receptor [1] turned out to be 2.1 nM; at A2B receptor [2] it was 36 nM. In the case of `CCc1c(C)nn2c(N)c(C#N)c(NCCc3cccc(C(C)(C)CO)n3)nc12` [Example 52, 7-amino-3-ethyl-5-((2-(6-(1-hydroxy-2-methylpropan-2-yl)pyridin-2-yl)ethyl)amino)-2-methylpyrazolo[1,5-a] pyrimidine-6-carbonitrile], the results for the IC50 on A2A receptor [1] and at A2B receptor [2] were 0.54 nM and 29.3 nM, respectively. Regarding `CCc1c(C(F)F)nn2c(N)c(C#N)c(NCCc3cccc(C4CC4CO)n3)nc12` (stereo not shown) [Example 59, 7-amino-2-(difluoromethyl)-3-ethyl-5-((2-(6-(2-(hydroxymethyl)cyclopropyl)pyridin-2-yl)ethyl)amino)pyrazolo[1,5-a]pyrimidine-6-carbonitrile], the results for the half-inhibitory concentration (IC50) at A2A receptor [3] and on A2B receptor [2] were 1080 nM and 9 nM, respectively.

For `Cc1nn2c(N)c(C#N)c(NCCc3cccc(C(F)(F)CO)n3)nc2c1Cl` [Example 64, 7-amino-3-chloro-5-((2-(6-(1,1-difluoro-2-hydroxyethyl)pyridin-2-yl)ethyl)amino)-2-methylpyrazolo[1,5-a]pyrimidine-6-carbonitrile], the IC50 at A2B receptor [4] was found to be 9070 nM; at A2A receptor [3], 284 nM; on A2B receptor [2] it was 11 nM.

As for `CCc1c(C)nn2c(N)c(C#N)c(NCCc3cccc(C4CC4CO)n3)nc12` (stereo not shown) [Example 60, 7-amino-3-ethyl-5-((2-(6-(2-(hydroxymethyl)cyclopropyl)284yridine-2-yl)ethyl)amino)-2-methylpyrazolo[1,5-a]pyrimidine-6-carbonitrile], the values for the IC50 on A2A receptor [3] and on A2B receptor [2] were 211 nM and 0.94 nM, respectively. Consider `Cc1nn2c(N)c(C#N)c(NCCc3ccn(CC4CC(O)C4)n3)nc2c1Cl` (racemic) [Example 82, (+−)-7-amino-3-chloro-5-((2-(1-((3-hydroxycyclobutyl)methyl)-1H-pyrazol-3-yl)ethyl)amino)-2-methylpyrazolo[1,5-a]pyrimidine-6-carbonitrile], for which the IC50 on A2B receptor [4] was determined as 2340 nM; on A2A receptor [3] it was 110 nM; at A2B receptor [2], 7 nM.

`CCc1c(C)nn2c(N)c(C#N)c(NCCc3cccc(OC)n3)nc12` [Example 20, 7-Amino-3-ethyl-5-((2-(6-methoxypyridin-2-yl)ethyl)amino)-2-methylpyrazolo [1,5-a]pyrimidine-6-carbonitrile] displayed a half-inhibitory concentration (IC50) at A2B receptor [2] of 4 nM.

As to `CCc1c(C)nn2c(N)c(C#N)c(NCCc3ccn(CC4(CO)CC4)n3)nc12` [Example 63, 7-amino-3-ethyl-5-((2-(1-((1-(hydroxymethyl)cyclopropyl)methyl)-1H-pyrazol-3-yl)ethyl)amino)-2-methylpyrazolo[1,5-a]pyrimidine-6-carbonitrile], the IC50 on A2B receptor [4] amounted to 2800 nM; at A2A receptor [3], 810 nM; on A2B receptor [2], 7.3 nM. With `CCc1c(C)nn2c(N)c(C#N)c(NCCc3ccn(CC4CC(O)C4)n3)nc12` (stereo not shown) [Example 85, 7-amino-3-ethyl-5-((2-(1-((3-hydroxycyclobutyl)methyl)-1H-pyrazol-3-yl)ethyl)amino)-2-methylpyrazolo[1,5-a] pyrimidine-6-carbonitrile], the 50% inhibitory concentration (IC50) at A2B receptor [4] came to 1070 nM; at A2A receptor [3] it was 211 nM; at A2B receptor [2], 3 nM.

For the molecule `CCc1cnn2c(N)c(C#N)c(NCCc3cc(C)n(C4(CO)CC4)n3)nc12` [Example 80, 7-amino-3-ethyl-5-((2-(1-(1-(hydroxymethyl)cyclopropyl)-5-methyl-1H-pyrazol-3-yl)ethyl)amino) pyrazolo[1,5-a]pyrimidine-6-carbonitrile], the IC50 on A2B receptor [4] is 3800 nM; on A2A receptor [3] it was 83 nM; at A2B receptor [2] it was 12 nM. In the case of `CCc1c(C)nn2c(N)c(C#N)c(NCCc3ccn(C(C)CO)n3)nc12` (stereo not shown) [Example 81, 7-amino-3-ethyl-5-((2-(1-(1-hydroxypropan-2-yl)-1H-pyrazol-3-yl)ethyl)amino)-2-methylpyrazolo[1,5-a]pyrimidine-6-carbonitrile], the values for the IC50 on A2B receptor [4], on A2A receptor [3] and at A2B receptor [2] were 1050 nM, 63 nM and 3.6 nM, respectively.

On to `Cc1nn2c(N)c(C#N)c(NCc3cccc(C(C)(C)O)n3)nc2c1C` [Example 9, 7-amino-5-({[6-(2-hydroxypropan-2-yl)pyridin-2-yl]methyl}amino)-2,3-dimethylpyrazolo[1,5-a] pyrimidine-6-carbonitrile], for which the IC50 on A2B receptor [2] is 1130 nM. On to `Cc1cccc(CC(C)Nc2nc3c(C)c(C)nn3c(N)c2C#N)n1` (single isomer, unassigned) [Example 15, 7-amino-2,3-dimethyl-5-{[1-(6-methylpyridin-2-yl)propan-2-yl]amino}pyrazolo[1,5-a]pyrimidine-6-carbonitrile], for which the IC50 at A2B receptor [2] was 102 nM.

Turning to `Cc1nn2c(N)c(C#N)c(NCCc3ccn(C4CCC4CO)n3)nc2c1Cl` (stereo not shown) [Example 67, 7-amino-3-chloro-5-((2-(1-(2-(hydroxymethyl)cyclobutyl)-1H-pyrazol-3-yl)ethyl)amino)-2-methylpyrazolo[1,5-a]pyrimidine-6-carbonitrile], the IC50 came out at 1880 nM at A2B receptor [4], 0.1 nM on A2A receptor [1] and 50 nM at A2A receptor [3]. At A2A receptor [1], `Cc1nn2c(N)c(C#N)c(NCCc3cccc(CO)n3)nc2c1CC1CC1` [Example 46, 7-amino-3-(cyclopropylmethyl)-5-((2-(6-(hydroxymethyl)pyridin-2-yl)ethyl)amino)-2-methylpyrazolo[1,5-a]pyrimidine-6-carbonitrile] displayed an IC50 of 1.9 nM.

Take `Cc1c(C2CC2)nn2c(N)c(C#N)c(NCCc3cccc(C(C)(C)O)n3)nc12` [Example 47, 7-amino-2-cyclopropyl-5-((2-(6-(2-hydroxypropan-2-yl)pyridin-2-yl)ethyl)amino)-3-methylpyrazolo[1,5-a]pyrimidine-6-carbonitrile]: the IC50 on A2A receptor [1] is 7.2 nM. At A2B receptor [2], `CCc1c(C)nn2c(N)c(C#N)c(NCCc3ccn(C)n3)nc12` [Example 30] came in with an IC50 of 4.5 nM.

With `CCc1c(C)nn2c(N)c(C#N)c(NCCc3ccn(C4(CNCCO)CC4)n3)nc12` [Example 106, 7-amino-3-ethyl-5-((2-(1-(1-(((2-hydroxyethyl)amino)methyl)cyclopropyl)-1H-pyrazol-3-yl)ethyl)amino)-2-methylpyrazolo[1,5-a]pyrimidine-6-carbonitrile], the IC50 at A2B receptor [4] came out at 4390 nM; on A2A receptor [3], 75 nM. As to `CCCc1c(C)nn2c(N)c(C#N)c(NCCc3ccn(C4COCC4CO)n3)nc12` (single isomer, unassigned; (-)) [Example 160b, (−) 7-amino-5-((2-(1-(4-(hydroxymethyl)tetrahydrofuran-3-yl)-1H-pyrazol-3-yl)ethyl)amino)-2-methyl-3-propylpyrazolo[1,5-a]pyrimidine-6-carbonitrile], the IC50 on A2B receptor [4] was 1250 nM; on A2A receptor [3], 341 nM.

Consider `Cc1nn2c(N)c(C#N)c(NCCc3ccn(C4CCCC4CN)n3)nc2c1Cl` (stereo not shown) [Example 118, 7-amino-5-((2-(1-(2-(aminomethyl)cyclopentyl)-1H-pyrazol-3-yl)ethyl)amino)-3-chloro-2-methylpyrazolo[1,5-a] pyrimidine-6-carbonitrile], for which the IC50 amounted to 7850 nM on A2B receptor [4] and 78 nM at A2A receptor [3]. For `Cc1cccc(CCNc2nc3c(Cl)c(C)nn3c(N)c2C#N)n1` [Example 119, 7-amino-3-chloro-2-methyl-5-((2-(6-methylpyridin-2-yl)ethyl)amino) pyrazolo[1,5-a]pyrimidine-6-carbonitrile], in that order: 3410 nM and 260 nM.
